Experimental data taken from ChEMBL document CHEMBL4364276, “Discovery of 4-phenyl-2H-benzo[b][1,4]oxazin-3(4H)-one derivatives as potent and orally active PI3K/mTOR dual inhibitors” (Eur J Med Chem, 2019).

What was measured:
Homo sapiens = organism: Homo sapiens; assay: Inhibition of human AMPK (A1/B1/G2) at 100 nM using HMRSAMSGLHLVKRR as substrate by [gamma-33P]-ATP assay
[1] = target: RAC-gamma serine/threonine-protein kinase (Homo sapiens) (UniProt Q9Y243); assay: Inhibition of human AKT3 at 100 nM using KGSGSGRPRTSSFAEG as substrate by [gamma-33P]-ATP assay
[2] = target: Focal adhesion kinase 1 (Homo sapiens) (UniProt Q05397); assay: Inhibition of human FAK at 100 nM using poly[Glu:Tyr] (4:1) as substrate by [gamma-33P]-ATP assay
[3] = target: Serine/threonine-protein kinase BRSK1 (Homo sapiens) (UniProt Q8TDC3); assay: Inhibition of human BRSK1 at 100 nM using KKKVSRSGLYRSPSMPENLNRPR as substrate by [gamma-33P]-ATP assay
PI3K p110 beta/p85 alpha = PI3K p110 beta/p85 alpha (Homo sapiens, UniProt P42338); assay: Inhibition of recombinant human full length N-terminal GST-tagged PI3Kbeta (1 to 1070 residues)/PIK3R1 (1 to 724 residues) expressed in baculovirus expression system using PIP2 as substrate incubated for 2 hrs by ADP-Glo assay
[4] = target: NUAK family SNF1-like kinase 2 (Homo sapiens) (UniProt Q9H093); assay: Inhibition of human SNARK at 100 nM using KKKVSRSGLYRSPSMPENLNRPR as substrate by [gamma-33P]-ATP assay
[5] = target: Calcium/calmodulin-dependent protein kinase type IV (Homo sapiens) (UniProt Q16566); assay: Inhibition of human CAMK4 at 100 nM using KKLNRTLSFAEPG as substrate by [gamma-33P]-ATP assay
[6] = target: Mitogen-activated protein kinase kinase kinase 11 (Homo sapiens) (UniProt Q16584); assay: Inhibition of human MLK3 at 100 nM using MBP as substrate by [gamma-33P]-ATP assay
[7] = target: Serine/threonine-protein kinase ULK3 (Homo sapiens) (UniProt Q6PHR2); assay: Inhibition of human ULK3 at 100 nM using MBP as substrate by [gamma-33P]-ATP assay
[8] = target: Kinase suppressor of Ras 2 (Homo sapiens) (UniProt Q6VAB6); assay: Inhibition of human KSR2 at 100 nM using KRREILSRRPSYR as substrate by [gamma-33P]-ATP assay
[9] = target: Serine/threonine-protein kinase 17A (Homo sapiens) (UniProt Q9UEE5); assay: Inhibition of human DRAK1 at 100 nM using KKLNRTLSFAEPG as substrate by [gamma-33P]-ATP assay
[10] = target: Bone morphogenetic protein receptor type-1B (Homo sapiens) (UniProt O00238); assay: Inhibition of human ALK6 at 100 nM using casein as substrate by [gamma-33P]-ATP assay
HeLa [11] = assay: Antitumor activity against human HeLa cells xenografted in BALB/c nude mouse assessed as tumor growth inhibition at 20 mg/kg, ig administered for 30 days measured every 3 days during compound dosing relative to control; format: functional; details: po, read-out: TGI
[12] = target: Ephrin type-A receptor 1 (Homo sapiens) (UniProt P21709); assay: Inhibition of human EPHA1 at 100 nM using poly[Glu:Tyr] (4:1) as substrate by [gamma-33P]-ATP assay
[13] = target: Death-associated protein kinase 2 (Homo sapiens) (UniProt Q9UIK4); assay: Inhibition of human DAPK2 at 100 nM using KKLNRTLSFAEPG as substrate by [gamma-33P]-ATP assay
[14] = target: Activin receptor type-1B (Homo sapiens) (UniProt P36896); assay: Inhibition of human ALK4 at 100 nM using casein as substrate by [gamma-33P]-ATP assay
[15] = target: Myosin-IIIa (Homo sapiens) (UniProt Q8NEV4); assay: Inhibition of human MYO3A at 100 nM using MBP as substrate by [gamma-33P]-ATP assay
[16] = target: Mitogen-activated protein kinase 12 (Homo sapiens) (UniProt P53778); assay: Inhibition of human p38gamma at 100 nM using MBP as substrate by [gamma-33P]-ATP assay
[17] = target: Eukaryotic translation initiation factor 2-alpha kinase 3 (Homo sapiens) (UniProt Q9NZJ5); assay: Inhibition of human EIF2AK3 at 100 nM using MBP as substrate by [gamma-33P]-ATP assay
[18] = target: Tyrosine-protein kinase CSK (Homo sapiens) (UniProt P41240); assay: Inhibition of human CSK at 100 nM using poly[Glu:Tyr] (4:1) as substrate by [gamma-33P]-ATP assay
[19] = target: Rhodopsin kinase GRK1 (Homo sapiens) (UniProt Q15835); assay: Inhibition of human GRK1 at 100 nM using casein as substrate by [gamma-33P]-ATP assay
[20] = target: 3-phosphoinositide-dependent protein kinase 1 (Homo sapiens) (UniProt O15530); assay: Inhibition of human PDK1/PDPk1 at 100 nM using [KTFCGTPEYLAPEVRREPRILSEEEQEMFRDFDYIADWC as substrate by [gamma-33P]-ATP assay
[21] = target: Serine/threonine-protein kinase VRK2 (Homo sapiens) (UniProt Q86Y07); assay: Inhibition of human VRK2 at 100 nM using casein as substrate by [gamma-33P]-ATP assay
[22] = target: CDK3/Cyclin E (Homo sapiens) (UniProt P24864+Q00526); assay: Inhibition of human CDK3/cyclin-E at 100 nM using histone H1 as substrate by [gamma-33P]-ATP assay; format: protein-complex assay
[23] = target: Protein kinase C beta type (Homo sapiens) (UniProt P05771); assay: Inhibition of human PKCb2 at 100 nM using Histone H1 as substrate by [gamma-33P]-ATP assay
[24] = target: Maternal embryonic leucine zipper kinase (Homo sapiens) (UniProt Q14680); assay: Inhibition of human MELK at 100 nM using KKLNRTLSFAEPG as substrate by [gamma-33P]-ATP assay
HeLa [25] = assay: Antitumor activity against human HeLa cells xenografted in BALB/c nude mouse assessed as tumor growth inhibition at 50 mg/kg, ig administered for 30 days measured every 3 days during compound dosing relative to control; format: functional; details: po, read-out: TGI
[26] = target: Tyrosine-protein kinase Fer (Homo sapiens) (UniProt P16591); assay: Inhibition of human FER at 100 nM using poly[Glu:Tyr] (4:1) as substrate by [gamma-33P]-ATP assay
[27] = target: Mitogen-activated protein kinase 15 (Homo sapiens) (UniProt Q8TD08); assay: Inhibition of human ERK7 at 100 nM using MBP as substrate by [gamma-33P]-ATP assay
[28] = target: Tyrosine-protein kinase receptor UFO (Homo sapiens) (UniProt P30530); assay: Inhibition of human AXL at 100 nM using EAIYAAPFAKKK as substrate by [gamma-33P]-ATP assay

Chain of Mitogen-activated protein kinase kinase kinase 11 (Homo sapiens) (Q16584 whole entry, looked up): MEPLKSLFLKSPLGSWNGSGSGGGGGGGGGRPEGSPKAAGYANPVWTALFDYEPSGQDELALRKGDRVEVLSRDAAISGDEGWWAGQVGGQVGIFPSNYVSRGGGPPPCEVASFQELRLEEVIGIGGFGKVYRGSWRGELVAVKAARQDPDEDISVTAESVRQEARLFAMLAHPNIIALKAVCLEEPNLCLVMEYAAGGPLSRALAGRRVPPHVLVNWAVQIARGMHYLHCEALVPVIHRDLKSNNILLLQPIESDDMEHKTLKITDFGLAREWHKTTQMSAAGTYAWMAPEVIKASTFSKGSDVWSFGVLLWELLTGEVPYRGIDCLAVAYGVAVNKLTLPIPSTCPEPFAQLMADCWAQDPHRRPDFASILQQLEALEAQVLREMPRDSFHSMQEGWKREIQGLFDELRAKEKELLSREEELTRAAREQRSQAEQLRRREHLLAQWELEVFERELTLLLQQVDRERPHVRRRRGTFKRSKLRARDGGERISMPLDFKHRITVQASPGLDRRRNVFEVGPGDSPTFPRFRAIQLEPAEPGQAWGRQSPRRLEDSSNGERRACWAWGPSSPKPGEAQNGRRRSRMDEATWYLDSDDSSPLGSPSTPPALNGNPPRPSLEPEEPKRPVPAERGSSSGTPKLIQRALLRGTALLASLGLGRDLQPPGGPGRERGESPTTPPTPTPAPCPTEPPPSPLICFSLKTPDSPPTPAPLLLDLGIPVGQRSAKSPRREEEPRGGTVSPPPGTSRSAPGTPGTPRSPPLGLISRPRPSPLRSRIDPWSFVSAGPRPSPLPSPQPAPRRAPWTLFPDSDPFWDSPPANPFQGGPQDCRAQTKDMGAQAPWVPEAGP
Chain of Kinase suppressor of Ras 2 (Homo sapiens) (Q6VAB6 whole entry): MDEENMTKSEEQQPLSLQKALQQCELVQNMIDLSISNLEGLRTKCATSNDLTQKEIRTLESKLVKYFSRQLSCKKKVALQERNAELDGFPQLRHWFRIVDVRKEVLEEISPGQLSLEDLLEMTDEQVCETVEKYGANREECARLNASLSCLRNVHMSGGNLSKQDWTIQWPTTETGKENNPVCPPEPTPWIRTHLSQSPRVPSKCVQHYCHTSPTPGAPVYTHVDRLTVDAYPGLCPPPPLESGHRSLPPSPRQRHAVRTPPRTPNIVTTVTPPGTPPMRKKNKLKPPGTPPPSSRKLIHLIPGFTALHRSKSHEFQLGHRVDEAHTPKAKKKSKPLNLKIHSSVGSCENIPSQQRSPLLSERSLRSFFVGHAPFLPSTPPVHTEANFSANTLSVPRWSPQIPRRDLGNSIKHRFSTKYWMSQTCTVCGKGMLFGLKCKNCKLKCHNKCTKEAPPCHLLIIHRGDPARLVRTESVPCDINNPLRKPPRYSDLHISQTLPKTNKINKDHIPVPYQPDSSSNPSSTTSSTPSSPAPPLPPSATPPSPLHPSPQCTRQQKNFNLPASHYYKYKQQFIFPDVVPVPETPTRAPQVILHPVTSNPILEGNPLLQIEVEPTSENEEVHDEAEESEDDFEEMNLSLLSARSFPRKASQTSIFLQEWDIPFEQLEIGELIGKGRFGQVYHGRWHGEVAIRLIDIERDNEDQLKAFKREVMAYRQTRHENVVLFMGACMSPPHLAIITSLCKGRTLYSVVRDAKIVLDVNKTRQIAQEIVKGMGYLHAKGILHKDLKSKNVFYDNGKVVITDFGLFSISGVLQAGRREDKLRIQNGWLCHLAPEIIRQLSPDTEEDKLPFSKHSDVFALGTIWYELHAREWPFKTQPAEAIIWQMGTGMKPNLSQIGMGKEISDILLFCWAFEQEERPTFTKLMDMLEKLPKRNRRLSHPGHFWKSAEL
Chain of RAC-gamma serine/threonine-protein kinase (Homo sapiens) (Q9Y243 whole entry): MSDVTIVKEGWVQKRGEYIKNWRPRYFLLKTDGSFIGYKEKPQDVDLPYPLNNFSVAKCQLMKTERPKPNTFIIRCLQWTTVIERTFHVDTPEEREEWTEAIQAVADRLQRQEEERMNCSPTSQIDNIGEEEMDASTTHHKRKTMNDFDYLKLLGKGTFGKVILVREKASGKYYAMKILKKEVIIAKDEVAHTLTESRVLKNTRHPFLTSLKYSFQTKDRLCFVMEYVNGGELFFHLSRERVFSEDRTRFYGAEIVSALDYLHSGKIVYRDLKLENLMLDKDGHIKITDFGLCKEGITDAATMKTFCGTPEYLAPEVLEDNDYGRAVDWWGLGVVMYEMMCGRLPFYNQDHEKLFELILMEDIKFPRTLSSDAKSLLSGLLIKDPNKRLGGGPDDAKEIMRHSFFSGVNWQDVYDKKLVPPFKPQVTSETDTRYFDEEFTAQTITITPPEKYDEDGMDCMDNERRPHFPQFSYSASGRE
Chain of Eukaryotic translation initiation factor 2-alpha kinase 3 (Homo sapiens) (Q9NZJ5 whole entry): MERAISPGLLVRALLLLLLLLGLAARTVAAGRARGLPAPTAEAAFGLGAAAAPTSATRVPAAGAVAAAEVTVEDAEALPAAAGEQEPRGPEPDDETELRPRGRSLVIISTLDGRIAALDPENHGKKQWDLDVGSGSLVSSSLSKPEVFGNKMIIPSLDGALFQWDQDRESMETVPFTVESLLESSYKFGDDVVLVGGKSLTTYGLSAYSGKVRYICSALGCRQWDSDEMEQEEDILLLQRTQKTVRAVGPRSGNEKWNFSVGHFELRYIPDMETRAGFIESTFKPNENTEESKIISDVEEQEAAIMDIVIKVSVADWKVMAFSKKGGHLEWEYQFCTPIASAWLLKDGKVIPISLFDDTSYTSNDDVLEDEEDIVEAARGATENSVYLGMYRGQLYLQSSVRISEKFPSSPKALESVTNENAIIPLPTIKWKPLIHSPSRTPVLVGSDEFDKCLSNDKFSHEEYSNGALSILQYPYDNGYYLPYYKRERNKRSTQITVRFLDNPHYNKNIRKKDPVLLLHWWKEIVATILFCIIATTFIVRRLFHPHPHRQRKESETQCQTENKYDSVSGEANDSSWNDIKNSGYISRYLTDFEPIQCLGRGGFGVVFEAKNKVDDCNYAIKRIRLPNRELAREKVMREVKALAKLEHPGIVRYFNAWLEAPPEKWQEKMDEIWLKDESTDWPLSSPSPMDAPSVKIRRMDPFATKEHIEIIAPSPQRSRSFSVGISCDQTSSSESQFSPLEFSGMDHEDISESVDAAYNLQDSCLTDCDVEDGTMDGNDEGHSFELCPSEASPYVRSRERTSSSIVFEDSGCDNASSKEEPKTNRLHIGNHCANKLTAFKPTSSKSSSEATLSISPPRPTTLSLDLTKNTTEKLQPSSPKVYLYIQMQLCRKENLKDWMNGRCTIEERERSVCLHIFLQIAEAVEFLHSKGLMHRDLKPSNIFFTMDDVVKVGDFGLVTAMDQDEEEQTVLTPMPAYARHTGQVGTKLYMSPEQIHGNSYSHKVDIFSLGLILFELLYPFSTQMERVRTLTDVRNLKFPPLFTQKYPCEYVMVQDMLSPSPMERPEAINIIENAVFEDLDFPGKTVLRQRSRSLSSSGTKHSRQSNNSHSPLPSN
Chain of Serine/threonine-protein kinase ULK3 (Homo sapiens) (Q6PHR2 whole entry): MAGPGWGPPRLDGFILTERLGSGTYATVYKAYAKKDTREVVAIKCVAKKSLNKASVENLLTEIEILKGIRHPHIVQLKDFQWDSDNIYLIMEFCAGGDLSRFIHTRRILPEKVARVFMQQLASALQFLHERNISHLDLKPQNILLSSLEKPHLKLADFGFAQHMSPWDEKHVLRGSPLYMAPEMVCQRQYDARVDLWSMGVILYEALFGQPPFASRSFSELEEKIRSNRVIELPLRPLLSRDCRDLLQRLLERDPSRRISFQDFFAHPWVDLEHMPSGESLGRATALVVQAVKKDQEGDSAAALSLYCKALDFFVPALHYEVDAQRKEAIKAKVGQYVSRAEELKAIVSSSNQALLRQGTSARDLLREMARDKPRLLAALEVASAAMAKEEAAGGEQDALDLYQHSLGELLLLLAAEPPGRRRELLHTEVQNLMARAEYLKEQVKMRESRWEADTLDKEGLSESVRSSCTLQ
Chain of Bone morphogenetic protein receptor type-1B (Homo sapiens) (O00238 whole entry): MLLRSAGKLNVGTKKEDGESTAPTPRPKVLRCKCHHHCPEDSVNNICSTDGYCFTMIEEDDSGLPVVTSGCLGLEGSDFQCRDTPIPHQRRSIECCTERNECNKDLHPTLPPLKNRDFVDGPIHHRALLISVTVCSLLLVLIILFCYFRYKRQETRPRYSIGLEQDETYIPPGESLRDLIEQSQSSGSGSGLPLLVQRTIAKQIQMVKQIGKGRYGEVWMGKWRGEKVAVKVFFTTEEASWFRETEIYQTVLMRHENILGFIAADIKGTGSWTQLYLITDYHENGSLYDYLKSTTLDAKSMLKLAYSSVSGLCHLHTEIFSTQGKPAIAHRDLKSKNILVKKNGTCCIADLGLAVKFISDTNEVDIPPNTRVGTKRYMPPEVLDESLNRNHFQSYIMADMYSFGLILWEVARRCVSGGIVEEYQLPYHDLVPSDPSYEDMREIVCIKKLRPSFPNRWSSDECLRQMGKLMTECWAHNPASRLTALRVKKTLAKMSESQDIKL
Chain of Death-associated protein kinase 2 (Homo sapiens) (Q9UIK4 whole entry, looked up): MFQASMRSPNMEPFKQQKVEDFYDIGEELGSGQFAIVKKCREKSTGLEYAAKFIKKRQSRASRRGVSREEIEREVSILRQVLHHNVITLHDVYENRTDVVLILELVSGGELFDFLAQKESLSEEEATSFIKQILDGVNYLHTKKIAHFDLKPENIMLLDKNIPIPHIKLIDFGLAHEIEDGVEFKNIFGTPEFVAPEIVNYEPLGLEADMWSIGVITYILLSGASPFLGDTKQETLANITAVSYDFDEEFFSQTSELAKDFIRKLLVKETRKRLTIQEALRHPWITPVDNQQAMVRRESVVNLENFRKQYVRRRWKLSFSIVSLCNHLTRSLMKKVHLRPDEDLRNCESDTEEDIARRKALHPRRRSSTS

## COc1ccc(N2C(=O)COc3ccc(-c4cnc(OC)c(NS(=O)(=O)c5ccc(F)cc5)c4)cc32)cc1
Homo sapiens
  inhibition: -8.22%
[1]
  inhibition: 5.88%
[2]
  inhibition: 15.9%
[3]
  inhibition: 12.8%
PI3K p110 beta/p85 alpha
  IC50: 94.5 nM
[4]
  inhibition: 4.8%
[5]
  inhibition: 12%
[6]
  inhibition: 3.29%
[7]
  inhibition: 5.64%
[8]
  inhibition: 20.8%
[9]
  inhibition: 0.44%
[10]
  inhibition: 2.39%
HeLa [11]
  inhibition in vivo at 20 mg/kg: 66.6%
[12]
  inhibition: 4.93%
[13]
  inhibition: -3.64%
[14]
  inhibition: -0.05%
[15]
  inhibition: 2.8%
[16]
  inhibition: -3.86%
[17]
  inhibition: 23.3%
[18]
  inhibition: 1%
[19]
  inhibition: -9.8%
[20]
  inhibition: -3.45%
[21]
  inhibition: 7%
[22]
  inhibition: 2.71%
[23]
  inhibition: -6.74%
[24]
  inhibition: 9.78%
HeLa [25]
  inhibition in vivo at 50 mg/kg: 87.7%
[26]
  inhibition: 29.8%
[27]
  inhibition: -4.54%
[28]
  inhibition: 25.4%
